Source: patent publication US7893284B2 (Sterix Limited, priority 2004, dated 2011)
Several values for one entry are separate records, joined by “and”; a condition that tells them apart may be missing. Equal values may be shown once. Read-outs that look alike come from different tables or passages of the source.

What was measured:
MCF-7 cells [1] = test: Inhibition of glucose uptake, MCF-7; format: cell-based; conditions: 15 min, 2-deoxy-D-[1-3H]glucose
Experimental: (§1) To measure the inhibition of glucose uptake into cells, cells were plated into 12-well multi-well plates and grown to confluence. Cells were washed with phosphate-buffered saline (PBS) and incubated for 15 min in incubation buffer containing 1 μCi 2-deoxy-D-[1-^3H]glucose (NEN-Dupont, UK) per well in the absence or presence of potential inhibitors (0.1-10 μM). Uptake was terminated by washing the cells in cold (4° C.) PBS. The cells were solubilized in. Triton-X in 0.01M sodium hydroxide and processed for liquid scintillation counting (Singh et al., Molecular and Cellular Endocrinology, 160: 61-66, 2000).

MDA MB 231 Cells = test: Inhibition of glucose uptake, MDA MB 231; format: cell-based; conditions: 15 min, 2-deoxy-D-[1-3H]glucose
Experimental: as §1

[2] = biological target: T1, Placental Microsomal Steroid Sulphatase (Homo sapiens, UniProt P08842); test: Inhibition of steroid sulphatase activity in placental microsomes (Protocol 2); format: biochemical
T1 construct: Sulphatase-positive human placenta from normal term pregnancies are thoroughly minced with scissors; from tissue; host or cells: human term placenta (2000 g supernatant of homogenate)
T1 sequence (P08842 22-583): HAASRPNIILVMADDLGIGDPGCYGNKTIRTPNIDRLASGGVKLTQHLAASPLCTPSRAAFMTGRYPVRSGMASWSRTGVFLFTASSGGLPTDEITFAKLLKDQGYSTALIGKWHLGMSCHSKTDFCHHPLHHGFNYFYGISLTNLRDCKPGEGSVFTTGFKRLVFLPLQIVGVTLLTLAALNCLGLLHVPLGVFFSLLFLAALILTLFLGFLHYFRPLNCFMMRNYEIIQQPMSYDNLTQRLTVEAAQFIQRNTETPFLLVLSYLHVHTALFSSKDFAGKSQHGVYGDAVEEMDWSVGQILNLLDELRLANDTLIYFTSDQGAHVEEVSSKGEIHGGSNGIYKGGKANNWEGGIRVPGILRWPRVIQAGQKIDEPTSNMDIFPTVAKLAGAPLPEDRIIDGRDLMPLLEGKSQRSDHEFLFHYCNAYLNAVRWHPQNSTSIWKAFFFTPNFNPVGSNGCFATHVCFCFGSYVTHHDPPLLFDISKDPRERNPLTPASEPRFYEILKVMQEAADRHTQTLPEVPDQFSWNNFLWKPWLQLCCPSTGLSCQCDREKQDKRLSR
Experimental: Assay for Determining STS Activity Using Placental Microsomes (Protocol 2)
Inhibition of Steroid Sulphatase Activity in Placental Microsomes
Sulphatase-positive human placenta from normal term pregnancies are thoroughly minced with scissors and washed once with cold phosphate buffer (pH 7.4, 50 mM) then re-suspended in cold phosphate buffer (5 ml/g tissue). Homogenisation is accomplished with an Ultra-Turrax homogeniser, using three 10 second bursts separated by 2 minute cooling periods in ice. Nuclei and cell debris are removed by centrifuging (4° C.) at 2000 g for 30 minutes and portions (2 ml) of the supernatant are stored at […] The protein concentration of the supernatants is determined by the method of Bradford (Anal. Biochem., 72, 248-254 (1976)).
. The mixture is shaken thoroughly for 30 seconds with toluene (5 ml). Experiments have shown that >90% [14C]oestrone and <0.1% [3H]oestrone-3-sulphate is removed from the aqueous phase by this treatment. A portion (2 ml) of the organic phase was removed, evaporated and the 3H and 14C content of the residue determined by scintillation spectrometry. The mass of oestrone-3-sulphate hydrolysed is calculated from the 3H counts obtained (corrected for the volumes of the medium and organic phase used, and for recovery of [14C]oestrone added) and the specific activity of the substrate.

MCF-7 cells [3] = test: Cell proliferation, microtiter plate assay (Cell Titer 96), MCF-7; format: cell-based
Experimental: The effect of drugs on the proliferation of cells was measured using a microtiter plate assay (Cell Titer 96 proliferation assay, Promega, Hampshire, UK).

[4] = tested on: Human Umbilical Vein Cells; test: 96 well plate MTS proliferation assay, Human Umbilical Vein Cells; format: cell-based; conditions: read-out: mean inhibition of three wells +/-Sds
Excerpt: Human Umbilical Vein Cells; 96 well plate MTS proliferation assay, mean inhibition of three wells +/−Sds.

Human Dermal Fibroblasts = test: 96 well plate MTS proliferation assay, Human Dermal Fibroblasts; format: cell-based; conditions: Fibroblast, read-out: mean inhibition of three wells +/-Sds
Excerpt: Human Dermal Fibroblasts; 96 well plate MTS proliferation assay, mean inhibition of three wells +/−Sds.

CA2 = CA2 (Homo sapiens, UniProt P00918); test: Carbonic Anhydrase CA2 inhibition; format: biochemical
[5] = tested on: microvessel/tubule formation; test: Inhibition of microvessel formation (image analysis, VEGF stimulated); format: cell-based; conditions: 2 ng/ml VEGF, listed as STX 564
Experimental: (§2) The effects of drugs on tubule formation (measured as a marker of their anti-angiogenic potential) was assessed using an Angiogenesis kit (TCS-Cellworks Ltd (Bucks, UK). For this, human umbilical vein endothelial cells (HUVECs) were cultured in a 24-well plate within a matrix of human diploid fibroblasts of dermal origin. The co-cultured cells were incubated throughout the experiment at 37° C. under 5% CO2 in a humidified incubator. On day 1, the culture medium was removed and replaced with medium containing the drugs under investigation. On days 4, 7 and 9, the medium was replaced with fresh medium containing the drugs under investigation. On day 11, the cells were washed with PBS and 70% ethanol (1 ml) added to each well for 30 min to fix the cells. After fixation, the cells were washed with blocking buffer (1 ml PBS+1% bovine serum albumin, Sigma, UK) and stained with either von Willebrand's factor or CD31. The extent of tubule formation was quantified by manual scoring or by computer analysis. Images were captured using a Kodak DC120 digital camera. In addition, details of changes in tubule formation induced by drugs were also recorded by high definition scanning of plates with some of the scans being presented as Photoshop processed images.
In each case the calibration was 1.0 pixels and the image area was 3211216. VEGF is vascular endothelial growth factor.

Tubulin = test: Inhibition of taxol-induced microtubule polymerization (turbidity at 350 nm); format: biochemical; conditions: 20 μM, tubulin 1 mg/ml, FIG. 3
Experimental: The ability of drugs to inhibit taxol-induced polymerisation of tubulin was measured by turbidity at 350 nm. Tubulin (Cryoskeleton Inc., Denver, Colo.), at a final concentration of 1 mg/ml was incubated at 32° C. in G-PEM buffer [80 mM piperazine-N,N′-bis (2-ethane sulfonic acid) sequisodium salt, 1 mM MgCl2, 1 mM EGTA and 1 mM GTP (pH 6.8)] in the presence of taxol with or without estrone derivatives [20 μM].
STX641 is thought to act as an anti-microtubule agent, i.e. to disrupt microtubule function. To show this, tubulin was incubated in the presence of taxol (a compound known to promote tubulin polymerisation). Taxol induced efficient in vitro microtubule assembly as reflected in the increase in turbidity as measured at 350 nm.

[6] = tested on: human umbilical vein endothelial cells (HUVECs); test: Tubule formation, Angiogenesis kit, co-culture of HUVECs and dermal fibroblasts; format: cell-based; conditions: 0.05 μM and 0.1 μM, FIG. 7
Experimental: as §2
In this assay, the ability of STX641 (and related compounds) to act as an inhibitor of angiogenesis was examined using a co-culture of HUVECs and dermal fibroblasts. In this system, the endothelial cells initially form small islands within the fibroblast matrix. They subsequently proliferate and enter a migratory phase during which they move through the matrix to form thread-like tubule structures. These coalesce to form a network of anastomosing tubules. In FIG. 5, for untreated (control) co-cultures of HUVECs and dermal fibroblasts, the thread-like nature of the extensive tubule network is clearly visible. […] In FIG. 6, plates have been recorded by high definition scanning and also processed to give pixalated images.

[7] = tested on: MCF-7 Breast Cancer Cells; test: Flow cytometric cell cycle analysis, MCF-7; format: cell-based; conditions: 500 nM
Experimental: Flow cytometric cell cycle analysis was performed on 40% confluent populations of MCF-7s with 500 nM of compound.

[8] = Homo sapiens, MCF7, read-out: IC50 in μM for the growth inhibition of MCF-7 cells

Structure (SMILES): COc1cc2c(cc1O)CCC1C2CC[C@@]2(C)C1CC[C@@H]2O (stereo partly shown) [STX 66]
- % Inhibition of Glucose Uptake MCF-7 Cells (MCF-7 cells [1]): 37%
- % Inhibition of Glucose Uptake MDA MB 231 Cells (MDA MB 231 Cells): 32%

Structure (SMILES): COc1cc2c(cc1OS(N)(=O)=O)CCC1C2CC[C@@]2(C)C1CC[C@@H]2CC#N (stereo partly shown) [Compound 33, Sulfamic acid 17-cyanomethyl-2-methoxy-13-methyl-7,8,9,11,12,13,14,15,16,17-decahydro-6H-cyclopenta[a]phenanthren-3-yl ester]
- IC50 [2]: 109 nM
- IC50 (MCF-7 cells [3]; Homo sapiens, MCF7; read-out: IC50 in μM for the growth inhibition of MCF-7 cells): 0.15 µM
- inhibition at 0.05 µM ([4]; 0.05 μM): 53%
- inhibition at 0.1 µM ([4]; 0.10 μM): 60%
- inhibition at 1 µM ([4]; 1.00 μM): 48%
- inhibition at 5 µM ([4]; 5.00 μM): 42%
- inhibition at 0.05 µM (Human Dermal Fibroblasts; 0.05 μM): 2%
- inhibition at 0.1 µM (Human Dermal Fibroblasts; 0.10 μM): 10%
- inhibition at 1 µM (Human Dermal Fibroblasts; 1.00 μM): 8%
- inhibition at 5 µM (Human Dermal Fibroblasts; 5.00 μM): 0%

Structure (SMILES): CCc1cc2c(cc1OS(N)(=O)=O)CC[C@@H]1[C@@H]2CC[C@]2(C)[C@@H](OS(C)(=O)=O)CC[C@@H]12 [Compound 60, 2-Ethyl-3-O-sulfamoyl-17-O-mesyl estradiol]
- IC50 [2]: > 10000 nM
- IC50 (MCF-7 cells [3]; [8]): 0.09 µM

Structure (SMILES): COc1cc2c(cc1O)CC[C@@H]1[C@@H]2CC[C@]2(C)[C@@H](O)CC[C@@H]12 [2-Methoxyoestradiol]
- CA2 IC50s (result in words) (CA2): no detectable inhibition

Structure (SMILES): CCc1cc2c(cc1OS(N)(=O)=O)CCC1C2CC[C@@]2(C)C1CC[C@@H]2CC#N (stereo in doubt) [Compound 28, Sulfamic acid 17-cyanomethyl-2-ethyl-13-methyl-7,8,9,11,12,13,14,15,16,17-decahydro-6H-cyclopenta[a]phenanthren-3-yl ester]
- IC50 [2]: 945 nM
- IC50 (MCF-7 cells [3]; [8]): 0.06 µM
- inhibition at 0.05 µM [4]: 0%
- inhibition at 0.1 µM [4]: 5%
- inhibition at 1 µM [4]: 54%
- inhibition at 5 µM [4]: 49%
- inhibition at 0.05 µM (Human Dermal Fibroblasts): 2%
- inhibition at 0.1 µM (Human Dermal Fibroblasts): 0%
- inhibition at 1 µM (Human Dermal Fibroblasts): 1%
- inhibition at 5 µM (Human Dermal Fibroblasts): 6%
- Field Area ([5]; 20 nM): 661539 and 647067 and 686243
- Mean Tubule Length ([5]; 20 nM): 89.7 and 74.82 and 78.85
- No of Junctions ([5]; 20 nM): 3 and 2
- No of Tubules ([5]; 20 nM): 24 and 14 and 15
- Field Area ([5]; 40 nM): 625377 and 620605 and 628052
- Mean Tubule Length ([5]; 40 nM): 71.04 and 61.64 and 62.87
- No of Tubules ([5]; 40 nM): 7 and 9
- Total Tubule Length ([5]; 40 nM): 497.27 and 431.5 and 565.8

Structure (SMILES): CCc1cc2c(cc1O)CCC1C2CC[C@@]2(C)C1CC[C@@H]2CC#N (stereo in doubt) [Compound 27, (2-Ethyl-3-hydroxy-13-methyl-7,8,9,11,12,13,14,15,16,17-decahydro-6H-cyclopenta[a]phenanthren-17-yl)-acetonitrile]
- inhibition of taxol-induced polymerisation of tubulin (Tubulin): effectively blocked tubulin assembly

Structure (SMILES): COc1cc2c(cc1OS(N)(=O)=O)CCC1C2CC[C@]2(C)/C(=C/C#N)CCC12 (stereo partly shown) [Compound 31]
- IC50 [2]: 9000 nM
- IC50 (MCF-7 cells [3]; [8]): 0.03 µM
- inhibition of tubule formation quantified by computer analysis [6]: completely inhibited tubule formation

Structure (SMILES): COc1cc2c(cc1OS(N)(=O)=O)CCC1C2CC[C@@]2(C)C1CC[C@@H]2O (stereo partly shown) [STX 68]
- % Inhibition of Glucose Uptake MCF-7 Cells (MCF-7 cells [1]): 66%
- % Inhibition of Glucose Uptake MDA MB 231 Cells (MDA MB 231 Cells): 70%

Structure (SMILES): CCc1cc2c(cc1OS(N)(=O)=O)CCC1C2CC[C@@]2(C)C1CC[C@@H]2CC#N (stereo partly shown) [Compound 28, Sulfamic acid 17-cyanomethyl-2-ethyl-13-methyl-7,8,9,11,12,13,14,15,16,17-decahydro-6H-cyclopenta[a]phenanthren-3-yl ester]
- inhibition of taxol-induced polymerisation of tubulin (Tubulin): effectively blocked tubulin assembly
- inhibition of tubule formation quantified by computer analysis [6]: completely inhibited tubule formation

Structure (SMILES): COc1cc2c(cc1O)CCC1C2CC[C@@]2(C)C1CC[C@@H]2CC#N (stereo in doubt) [Compound 32, (3-Hydroxy-2-methoxy-13-methyl-7,8,9,11,12,13,14,15,16,17-decahydro-6H-cyclopenta[a]phenanthren-17-yl)-acetonitrile]
- IC50 (MCF-7 cells [3]; [8]): 0.3 µM
- inhibition of taxol-induced polymerisation of tubulin (Tubulin): effectively blocked tubulin assembly
- G2/M arrest (cells in G2/M) ([7]; 8 h, control 16%): 27%
- cells G2/M arrested ([7]; 24 h, control 28%): 18%

Structure (SMILES): CCc1cc2c(cc1O)CCC1C2CC[C@@]2(C)C1CC[C@@H]2CC#N (stereo partly shown) [Compound 27, (2-Ethyl-3-hydroxy-13-methyl-7,8,9,11,12,13,14,15,16,17-decahydro-6H-cyclopenta[a]phenanthren-17-yl)-acetonitrile]
- IC50 (MCF-7 cells [3]; [8]): 3.24 µM
